CC(=CC(C)=Nc1c(C)cc(C)cc1C)Nc1c(C)cc(C)cc1C
solubility (mole fraction)
Conditions	273.15 K	278.15 K	283.15 K	288.15 K	293.15 K	298.15 K	303.15 K
in THF	0.215	0.233	0.253	0.273	0.295	0.317	0.346
in ethanol	0.00285	0.00317	0.00373	0.00471	0.00561	0.00678	0.00849
in methanol	0.0008	0.00094	0.00117	0.00137	0.00169	0.00205	0.00275
in n-hexane	0.0989	0.106	0.124	0.148	0.181	0.216	0.255
in toluene	0.189	0.211	0.236	0.264	0.295	0.33	0.372
